Laboratory results as given in the NIST ThermoML archive (doi:10.1021/acs.jced.7b01006).
Numbers after ± are expanded uncertainties.

Experiments:
[1] = for electrical conductivity / viscosity / mass density: 100 kPa, Liquid; for electrical conductivity: Alternating current cell with electrodes; for viscosity: Falling or rolling sphere viscometry; for mass density: Vibrating tube method; for surface tension liquid-gas: Wilhelmy plate
[2] = xn = mol fraction of the nth substance listed; settings: 100 kPa, Liquid, x2 = 0; for viscosity: Falling or rolling sphere viscometry; for mass density: Vibrating tube method

Structure (SMILES)	electrical conductivity ([1]; 288.15 K) [S/m]	viscosity ([1]; 288.15 K) [mPa·s]	mass density ([1]; 288.15 K) [kg/m3]	electrical conductivity ([1]; 293.15 K) [S/m]	viscosity ([1]; 293.15 K) [mPa·s]	mass density ([1]; 293.15 K) [kg/m3]	surface tension liquid-gas ([1]; 298.15 K) [mN/m]	electrical conductivity ([1]; 298.15 K) [S/m]	viscosity ([1]; 298.15 K) [mPa·s]	mass density ([1]; 298.15 K) [kg/m3]	viscosity ([1]; 303.15 K) [mPa·s]	mass density ([1]; 303.15 K) [kg/m3]	viscosity ([1]; 308.15 K) [mPa·s]	mass density ([1]; 308.15 K) [kg/m3]	viscosity ([1]; 313.15 K) [mPa·s]	mass density ([1]; 313.15 K) [kg/m3]	viscosity ([1]; 318.15 K) [mPa·s]	mass density ([1]; 318.15 K) [kg/m3]	viscosity ([1]; 323.15 K) [mPa·s]	mass density ([1]; 323.15 K) [kg/m3]	further results
CCC[n+]1ccn(C)c1C.N#C[S-] [1,2-dimethyl-3-propylimidazolium thiocyanate]	0.255 ± 0.026	316.5 ± 20	1099.81 ± 2.9	0.361 ± 0.036	215.8 ± 11	1096.75 ± 2.9	48.8 ± 0.8	0.459 ± 0.046	151.9 ± 6.1	1093.67 ± 2.9	110.1 ± 3.4	1090.61 ± 2.9	83.42 ± 2	1087.57 ± 2.9	64.78 ± 1.3	1084.55 ± 2.9	50.96 ± 0.92	1081.54 ± 2.9	41.55 ± 0.81	1078.54 ± 2.8	electrical conductivity ([1]; 303.15 K): 0.583 ± 0.058 S/m; electrical conductivity ([1]; 308.15 K): 0.733 ± 0.073 S/m; electrical conductivity ([1]; 313.15 K): 0.905 ± 0.091 S/m; electrical conductivity ([1]; 318.15 K): 1.1 ± 0.11 S/m; electrical conductivity ([1]; 323.15 K): 1.33 ± 0.13 S/m
CC#N [acetonitrile]	–	0.376 ± 0.005	787.58 ± 2	–	0.357 ± 0.005	781.89 ± 2	–	–	0.339 ± 0.005	776.52 ± 2	0.324 ± 0.004	771.12 ± 2	0.309 ± 0.004	765.83 ± 2	0.295 ± 0.004	760.36 ± 2	0.283 ± 0.004	755.14 ± 2	0.272 ± 0.004	749.44 ± 2	–
CC#N [acetonitrile] + CCC[n+]1ccn(C)c1C.N#C[S-]	–	–	–	–	–	–	–	–	–	–	–	–	–	–	–	–	–	–	–	–	viscosity ([2]; 288.15 K): 0.376 ± 0.005 mPa·s; mass density ([2]; 288.15 K): 787.58 ± 2 kg/m3; viscosity ([2]; 293.15 K): 0.357 ± 0.005 mPa·s; mass density ([2]; 293.15 K): 781.89 ± 2 kg/m3; viscosity ([2]; 298.15 K): 0.339 ± 0.005 mPa·s; mass density ([2]; 298.15 K): 776.52 ± 2 kg/m3; viscosity ([2]; 303.15 K): 0.324 ± 0.004 mPa·s; mass density ([2]; 303.15 K): 771.12 ± 2 kg/m3; viscosity ([2]; 308.15 K): 0.309 ± 0.004 mPa·s; mass density ([2]; 308.15 K): 765.83 ± 2 kg/m3; viscosity ([2]; 313.15 K): 0.295 ± 0.004 mPa·s; mass density ([2]; 313.15 K): 760.36 ± 2 kg/m3; viscosity ([2]; 318.15 K): 0.283 ± 0.004 mPa·s; mass density ([2]; 318.15 K): 755.14 ± 2 kg/m3; viscosity ([2]; 323.15 K): 0.272 ± 0.004 mPa·s; mass density ([2]; 323.15 K): 749.44 ± 2 kg/m3
CC#N [acetonitrile] + CCCCn1cc[n+](C)c1C.N#C[S-]	–	–	–	–	–	–	–	–	–	–	–	–	–	–	–	–	–	–	–	–	viscosity ([2]; 288.15 K): 0.376 ± 0.005 mPa·s; mass density ([2]; 288.15 K): 787.58 ± 2 kg/m3; viscosity ([2]; 293.15 K): 0.357 ± 0.005 mPa·s; mass density ([2]; 293.15 K): 781.89 ± 2 kg/m3; viscosity ([2]; 298.15 K): 0.339 ± 0.005 mPa·s; mass density ([2]; 298.15 K): 776.52 ± 2 kg/m3; viscosity ([2]; 303.15 K): 0.324 ± 0.004 mPa·s; mass density ([2]; 303.15 K): 771.12 ± 2 kg/m3; viscosity ([2]; 308.15 K): 0.309 ± 0.004 mPa·s; mass density ([2]; 308.15 K): 765.83 ± 2 kg/m3; viscosity ([2]; 313.15 K): 0.295 ± 0.004 mPa·s; mass density ([2]; 313.15 K): 760.36 ± 2 kg/m3; viscosity ([2]; 318.15 K): 0.283 ± 0.004 mPa·s; mass density ([2]; 318.15 K): 755.14 ± 2 kg/m3; viscosity ([2]; 323.15 K): 0.272 ± 0.004 mPa·s; mass density ([2]; 323.15 K): 749.44 ± 2 kg/m3
CCCCn1cc[n+](C)c1C.N#C[S-] [1-butyl-2,3-dimethylimidazolium thiocyanate]	0.106 ± 0.011	452.7 ± 34	1084.2 ± 2.9	0.153 ± 0.015	311.3 ± 20	1081.11 ± 2.9	44.8 ± 0.7	0.217 ± 0.022	218 ± 11	1078.2 ± 2.8	157.9 ± 6.6	1075.18 ± 2.8	118.9 ± 3.9	1072.16 ± 2.8	90.46 ± 2.3	1069.15 ± 2.8	72.04 ± 1.5	1066.16 ± 2.8	57.11 ± 1.1	1063.2 ± 2.8	electrical conductivity ([1]; 303.15 K): 0.293 ± 0.029 S/m; electrical conductivity ([1]; 308.15 K): 0.386 ± 0.039 S/m; electrical conductivity ([1]; 313.15 K): 0.496 ± 0.05 S/m; electrical conductivity ([1]; 318.15 K): 0.627 ± 0.063 S/m; electrical conductivity ([1]; 323.15 K): 0.774 ± 0.077 S/m
